Results published in US20040248887A1, “Inhibitors of cathepsin S” (IRM LLC, priority 2003, published 2004).
Like-named read-outs stand apart in the source and are kept apart here.

Experiments:
Format in all cases: biochemical
Cathepsin S = Cathepsin S (Homo sapiens, UniProt P25774); experiment: Cathepsin S inhibition, fluorogenic peptide substrate kinetic assay; settings: Cathepsin S inhibition constant, pH5.5, read-out: Ki Cat. S
In short: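 Reactions were started with 50 μM (final) acetyl-His-Pro-Val-Lys-aminocarbamoylcoumarin, and hydrolysis was followed by fluorescence (ex 380/em 450 nm). Apparent inhibition constants from enzyme progress curves were converted to Ki for competitive inhibitors using substrate concentration and Km.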

Cathepsin B = Cathepsin B (Homo sapiens, UniProt P07858); experiment: Cathepsin B inhibition, fluorogenic peptide substrate kinetic assay; settings: Table III; Cathepsin B inhibition constant, pH5.5; read-out: Ki Cat. B
Description: The optimal substrate for cathepsin B, acetyl-histidine-proline-valine-lysine-amino carbamoyl coumarin, was identified from screening a combinatorial library of fluorogenic peptide substrates (Harris, J. L., B. J. Backes, et al., Proc Natl Acad Sci USA 2000, 97(14), 7754-9). Kinetic measurements are performed in a total reaction volume of 30 μl in 384-well microtiter plates. Cathepsin B, at a final concentration of 1.5 nM (active site), is incubated with the compounds at twelve varying concentrations in a buffer containing 100 mM NaAc (pH5.5), 1 mM EDTA, 100 mM NaCl, 0.01% Brij-35 for 20 minutes at room temperature. Control reactions in the absence of inhibitor are performed in replicates of 24. The reactions are initiated by adding the substrate, acetyl-histidine-proline-valine-lysine-amino carbamoyl coumarin, to a final concentration of 10 μM. The rate of substrate hydrolysis is measured by monitoring the increase in fluorescence at an excitation wavelength of 380 nm and an emission wavelength of 450 nm that results from cleavage of the aniline bond in the substrate by the enzyme. The apparent inhibition constants for the compounds are determined from the enzyme progress curves (Kuzmie, P., K. C. Elrod, et al., Anal Biochem 2000, 286(1), 45-50) and are then used to calculate the inhibition constants for competitive inhibitors.

Cathepsin L = Cathepsin L (Homo sapiens, UniProt P07711); experiment: Cathepsin L inhibition, fluorogenic peptide substrate kinetic assay; settings: Table III; Cathepsin L inhibition constant, pH5.5; read-out: Ki Cat. L
Sequence of Cathepsin L (P07711 114-333, species assumed): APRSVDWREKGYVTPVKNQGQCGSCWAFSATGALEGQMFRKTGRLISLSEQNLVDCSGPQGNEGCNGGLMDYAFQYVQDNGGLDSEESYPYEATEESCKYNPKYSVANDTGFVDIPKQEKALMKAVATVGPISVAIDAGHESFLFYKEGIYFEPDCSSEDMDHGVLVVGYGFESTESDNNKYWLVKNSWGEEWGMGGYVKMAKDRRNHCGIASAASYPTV
Description: (§1) Kinetic measurements are performed in a total reaction volume of 30 μl in 384-well microtiter plates. […] The reactions are initiated by adding the substrate, acetyl-histidine-lysine-phenylalanine-lysine-amino carbamoyl coumarin, to a final concentration of 20 μM. The rate of substrate hydrolysis is measured by monitoring the increase in fluorescence at an excitation wavelength of 380 nm and an emission wavelength of 450 nm that results from cleavage of the aniline bond in the substrate by the enzyme. The apparent inhibition constants for the compounds are determined from the enzyme progress curves (Kuzmic, P., K. C. Elrod, et al., Anal Biochem 2000, 286(1), 45-50) and are then used to calculate the inhibition constants for competitive inhibitors.

Cathepsin K = target: T1, Cathepsin K (Homo sapiens, UniProt P43235); experiment: Cathepsin K inhibition, fluorogenic peptide substrate kinetic assay; settings: Table III; Cathepsin K inhibition constant, pH5.5; read-out: Ki Cat. K
T1 sequence (P43235 115-329): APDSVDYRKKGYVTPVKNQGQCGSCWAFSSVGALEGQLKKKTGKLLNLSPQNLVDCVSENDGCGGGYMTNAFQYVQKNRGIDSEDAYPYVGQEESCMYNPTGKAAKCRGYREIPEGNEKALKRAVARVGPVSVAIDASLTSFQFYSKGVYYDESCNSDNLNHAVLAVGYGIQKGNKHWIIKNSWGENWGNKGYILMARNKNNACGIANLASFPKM
Description: as §1, with “The optimal substrate for cathepsin K, acetyl-lysine-histidine-proline-lysine-amino carbamoyl coumarin, was identified from screening a combinatorial library of fluorogenic peptide substrates (Harris, J. L., B. J. Backes, et al., Proc Natl Acad Sci U S A 2000, 97(14), 7754-9). Kinetic” for “Kinetic”, “substrate, acetyl-lysine-histidine-proline-lysine-amino” for “substrate, acetyl-histidine-lysine-phenylalanine-lysine-amino”, “of 40” for “of 20”

Sequence of Cathepsin S (P25774 115-331, species assumed): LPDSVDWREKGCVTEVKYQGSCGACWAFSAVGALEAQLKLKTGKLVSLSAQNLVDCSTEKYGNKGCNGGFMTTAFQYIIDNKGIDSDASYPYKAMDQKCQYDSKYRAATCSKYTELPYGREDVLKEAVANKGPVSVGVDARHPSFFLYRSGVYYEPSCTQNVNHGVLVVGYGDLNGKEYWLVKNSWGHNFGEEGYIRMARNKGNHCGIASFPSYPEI

Cc1cccc(C(=O)N[C@@H](CC2CCCCC2)C(=O)NCCN2CCc3cc(F)ccc32)c1 [Compound 71, N—(S)-{2-cyclohexyl-1-[2-(5-fluoro-2,3-dihydro-indol-1-yl)-ethylcarbamoyl]-ethyl}-3-methyl-benzamide]
Ki (Cathepsin S; Table II): < 0.1 µM
Ki (Cathepsin S; Table III): < 0.1 µM
Ki (Cathepsin B): > 10 µM
Ki (Cathepsin L): < 0.1 µM
Ki (Cathepsin K): < 10 µM

COc1cccc(C(=O)N[C@@H](CC2CCCCC2)C(=O)N[C@@H](CN2CCOCC2)CN2CCc3cc(F)ccc32)c1 [Compound 151, N-{2-Cyclohexyl-1-(S)-[2-(5-fluoro-2,3-dihydro-indol-1-yl)-1-(S)-morpholin-4-ylmethyl-ethylcarbamoyl]-ethyl}-3-methoxy-benzamide]
Ki (Cathepsin S; Table II): < 0.1 µM
Ki (Cathepsin S; Table III): < 0.1 µM
Ki (Cathepsin B): > 10 µM
Ki (Cathepsin L): < 0.1 µM
Ki (Cathepsin K): < 10 µM

COC(=O)c1cccc(NC[C@H](C)NC(=O)[C@H](CC2CCCCC2)NC(=O)c2ccc(-c3cccc(F)c3)o2)c1 [Compound 110, 3-[2-(S)-(3-Cyclohexyl-2-(S)-{[5-(3-fluoro-phenyl)-furan-2-carbonyl]-amino}-propionylamino)-propylamino]-benzoic acid methyl ester]
Ki (Cathepsin S; Table II): < 1 µM
Ki (Cathepsin S; Table III): < 1 µM
Ki (Cathepsin B): > 10 µM
Ki (Cathepsin L): < 10 µM
Ki (Cathepsin K): < 10 µM

COC(=O)c1ccc(COC[C@@H](CN2CCc3cc(F)ccc32)NC(=O)[C@H](CCC2CCCCC2)NC(=O)c2cccc(OC)c2)cc1 [Compound 171, 4-{2-(R)-[4-Cyclohexyl-2-(S)-(3-methoxy-benzoylamino)-butyrylamino]-3-(5-fluoro-2,3-dihydro-indol-1-yl)-propoxymethyl}-benzoic acid methyl ester]
Ki (Cathepsin S; Table II): < 0.1 µM
Ki (Cathepsin S; Table III): < 0.1 µM
Ki (Cathepsin B): > 10 µM
Ki (Cathepsin L): < 10 µM
Ki (Cathepsin K): > 10 µM

Cc1cccc(S(=O)(=O)N[C@@H](CC2CCCCC2)C(=O)N[C@@H](C)CN2CCc3cc(F)ccc32)c1 [Compound 251, (S,S)-3-Cyclohexyl-N-[2-(5-fluoro-2,3-dihydro-indol-1-yl)-1-methyl-ethyl]-2-(toluene-3-sulfonylamino)-propionamide]
Ki (Cathepsin S; Table II): < 0.1 µM
Ki (Cathepsin S; Table III): < 0.1 µM
Ki (Cathepsin B): > 10 µM
Ki (Cathepsin L): < 10 µM
Ki (Cathepsin K): > 10 µM

C[C@@H](CNc1ccc(OC(F)(F)F)cc1)NC(=O)[C@H](CC1CCCCC1)NS(=O)(=O)c1cccc(Cl)c1 [Compound 181, (S,S)-2-(3-Chloro-benzenesulfonylamino)-3-cyclohexyl-N-[1-methyl-2-(4-trifluoromethoxy-phenylamino)-ethyl]-propionamide]
Ki (Cathepsin S; Table II): < 0.1 µM
Ki (Cathepsin S; Table III): < 0.1 µM
Ki (Cathepsin B): > 10 µM
Ki (Cathepsin L): < 10 µM
Ki (Cathepsin K): > 10 µM
